Converted amounts (≈) assume the structure as drawn.
Assays:
human cancer cell lines = details: a number of human cancer cell lines, particularly vincristin-resistent cells; cited from earlier work
[1] = tested on: K-562 human leukemia cells; experiment: antiproliferative test on K-562 human leukemia cells; assay type: cell-based; details: K562
Source text: (§1) The inventive substances 1-4 show very strong antiproliferative and cytotoxic effects (e.g. for L-929 mouse fibroblast, K-562 human leukemia cells and HeLa human cervix carcinoma line) and an antifungal activity (e.g. against Glomerella cingulata, Penicillium notatum, Fusarium culmorum, Hamigera avellanea, Aspergillus fumigatus). (See Table 1.)
(§2) The examination of the antiproliferative and cytotoxic properties of the substances 1-4 has been performed via the method described in the literature (H. M. Dahse, B. Schlegel, U. Gräfe, Pharmazie 2001, 56, 489-491). The antifungal activity has been determined via the agar diffusion test. (See Table 2.)

[2] = cytotoxicity test on HeLa human cervix carcinoma line; assay type: cell-based; details: HeLa human cervix carcinoma cells, cytotoxic
Source text: as §1, §2

L-929 mouse fibroblast = experiment: antiproliferative test on L-929 mouse fibroblasts; assay type: cell-based; details: L929
Source text: as §1, §2

Question: Which “activity against human cancer cell lines” value (human cancer cell lines) does the source give for CO[C@@H](/C(C)=C/C=C/C(C)=C/c1coc(C)n1)[C@@H](C)[C@@H]1C[C@H](O)[C@@]2(C)O[C@@H]2/C=C/[C@@H](C)[C@H]2C[C@H](CC(=O)O2)C[C@@H]2O[C@H]2C(=O)O1 [Rhizoxin] here?
Answer: high activity

Question: For CC(/C=C/C=C(\C)[C@H](O)[C@@H](C)C1C[C@H](O)C2(C)O[C@@H]2/C=C/[C@@H](C)[C@H](O)C[C@H](CC(=O)O)C/C=C/C(=O)O1)=C\c1coc(C)n1 (some centres unmarked) [Substance 1], which GI50 [1] is on record?
Answer: 15 ng/mL (≈ 24.4 nM)

Question: And the CC50 [2]?
Answer: 90 ng/mL (≈ 147 nM)

Question: For COC(=O)C[C@@H]1C/C=C/C(=O)OC([C@H](C)[C@@H](O)/C(C)=C/C=C/C(C)=C/c2coc(C)n2)C[C@H](O)C2(C)O[C@@H]2/C=C/[C@@H](C)[C@H](O)C1 (some centres unmarked) [Substance 2], which GI50 (L-929 mouse fibroblast) is on record?
Answer: 50 ng/mL (≈ 79.6 nM)

Question: What about the GI50 [1] of the same compound?
Answer: 0.03 ng/mL (≈ 0.0478 nM)

Question: And the CC50 [2]?
Answer: 0.28 ng/mL (≈ 0.446 nM)

Question: Which GI50 (L-929 mouse fibroblast) does the source give for COC(=O)C[C@@H]1C/C=C/C(=O)OC([C@H](C)[C@@H](OC)/C(C)=C/C=C/C(C)=C/c2coc(C)n2)C[C@H](O)C2(C)O[C@@H]2/C=C/[C@@H](C)[C@H](O)C1 (some centres unmarked) [Substance 3] here?
Answer: 50 ng/mL (≈ 77.9 nM)

Question: And the GI50 [1]?
Answer: < 0.03 ng/mL

Question: And the CC50 [2]?
Answer: < 0.03 ng/mL

Question: With COC(=O)C[C@@H]1C/C=C/C(=O)OC([C@H](C)[C@@H](OC)/C(C)=C/C=C/C(C)=C\c2coc(C)n2)C[C@H](O)C2(C)O[C@@H]2/C=C/[C@@H](C)[C@H](O)C1 (some centres unmarked) [Substance 4] as the compound, how does the GI50 (L-929 mouse fibroblast) read?
Answer: 12 ng/mL (≈ 18.7 nM)

Question: What about the GI50 [1] of the same compound?
Answer: < 0.03 ng/mL
